Two compounds from article PMC6539592, “Functional Analysis of Peptidyl-prolyl cis-trans Isomerase from Aspergillus flavus” (International Journal of Molecular Sciences, 2019) can be followed below.

This assay has as its target T1, ppci1 (Aspergillus flavus, UniProt B8NRT5).
T1 construct: E. coli BL21(DE3), modified pRSFDuet-1; N-terminal 6xHis tag removed with PreScission protease
In words: chymotrypsin-coupled PPIase assay, absorbance at […] nm. The format is biochemical. As to conditions: 15 °C, HEPES pH 8.0; substrate succinyl-AAPF-p-nitroanilide; figure labels traces FK506-CsA and FK506-Rap, possibly combined.

The structures appear in SMILES notation.

T1 sequence (B8NRT5 1-122): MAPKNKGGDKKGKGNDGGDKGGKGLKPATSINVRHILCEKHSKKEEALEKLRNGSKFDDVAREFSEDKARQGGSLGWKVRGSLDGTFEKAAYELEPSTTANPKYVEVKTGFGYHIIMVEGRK

Turning to `CO[C@H]1C[C@@H]2CC[C@@H](C)[C@@](O)(O2)C(=O)C(=O)N2CCCC[C@H]2C(=O)O[C@H]([C@H](C)C[C@@H]2CC[C@@H](O)[C@H](OC)C2)CC(=O)[C@H](C)/C=C(\C)[C@@H](O)[C@@H](OC)C(=O)[C@H](C)C[C@H](C)/C=C/C=C/C=C/1C` [Rap, Rapamycin], the inhibition entry was “We found that FK506, CsA and Rapamycin inhibit the protein activity of ppci1”.

Consider `C=CC[C@@H]1/C=C(\C)C[C@H](C)C[C@H](OC)[C@H]2O[C@@](O)(C(=O)C(=O)N3CCCC[C@H]3C(=O)O[C@H](/C(C)=C/[C@@H]3CC[C@@H](O)[C@H](OC)C3)[C@H](C)[C@@H](O)CC1=O)[C@H](C)C[C@@H]2OC` [FK506, Tacrolimus], for which the inhibition result is given as “activity of ppci1 was inhibited by these aforementioned drugs with constantly decreased absorption”.
